Results: PubChem BioAssay AID2060484 (Molecular Pharmacology Branch, DTP, NCI, 2025)

System: SUM149PT spheroids with HUVEC/MSC, viability
Experiment: Anticancer human tumor SUM149PT cell line growth inhibition [GQUAD];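 further: spheroids exposed to drugs for seven days before readout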;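 on viability, T/C: percent viability relative to DMSO vehicle control taken as 100%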
Settings: for IC50: curve of first compound; for viability, T/C: stronger effect = lower value
Excerpt: DNA G-quadruplex Stabilizer Agents in Combinations in Complex Spheroids
A high-throughput screen of multi-cell type tumor spheroids was designed to identify active combinations of DNA G-quadruplex stabilizer agents and targeted small molecules. Complex spheroids include a stromal component modeled by human endothelial cells (HUVEC) and fibroblasts modeled by human mesenchymal stem cells (MSCs). The concentration ranges selected for each drug and investigational agent were based upon clinically achievable concentrations if the clinical Cmax of the agent was known.
Compounds. The drugs and investigational agents: pidnarulex (CX-5461; NSC782164), APTO-253 (NSC789042), BRACO-19 (NSC847499), peposertib (NSC802822), ceralasertib (NSC780249), elimusertib (NSC800525), camonsertib (NSC841442), AZD-1390 (NSC803789), olaparib (NSC753686), talazoparib (NSC767125), ART-558 (NSC835418), sotorasib (NSC818433), MRTX-1133 (NSC836407), SN-38 (NSC673596), topotecan (NSC609699), etoposide (NSC141540), doxorubicin (NSC123127), gemcitabine (NSC613327), 5-fluorouracil (NSC19893), paclitaxel (NSC125973), vemurafenib (NSC761431), panobinostat (NSC761190), R-306465 (JNJ-16241199; NSC773264), adavosertib (NSC754352), TP-3654 (NSC805149), carboplatin (NSC241240), KSQ-4279 (NSC840948), and staurosporine (NSC755774) were obtained from the National Cancer Institute (NCI) Developmental Therapeutics Program Chemical Repository (34). The FDA-approved anticancer drug set is available from the NCI Developmental Therapeutics Program. […] The stock solutions were prepared in dimethyl sulfoxide (DMSO, Sigma-Aldrich, St. Louis, MO, cat. D2650) at 800-fold the tested concentration and stored at -70 degrees C prior to their use. All drugs and investigational agents were tested over a range starting from a high concentration at or near the clinical Cmax and decreasing in half-log increments. If the clinical Cmax for an agent had not been determined, the highest concentration tested was 10 microM.
2.3 Cell Culture. All cells were maintained in an incubator at 37 degrees C and 5% CO2 with 95% humidity. The PDC lines were cultured according to standard operating procedures established by the NCI PDMR. All PDCs were thawed and cultured in Matrigel-coated flasks prepared with a working solution of 1X Ham's F-12 nutrient mix, without supplementation (Invitrogen, cat. 11765054), 100 U/mL penicillin-streptomycin (Invitrogen, cat. 15140122), and 2.5% Matrigel (Corning Inc., cat. 354248) for the first three passages. The 857933-349-R-J2-PDC line was cultured in 6C/Colon 1B media, which includes advanced DMEM/F-12 (Thermo Fisher Scientific, cat. 12634028), 10 mM HEPES (Thermo Fisher Scientific, cat. 15630080), 1X GlutaMAX supplement (Thermo Fisher Scientific, cat. 35050061), 0.1 mg/mL primocin (InvivoGen, cat. ant-pm-2), 10% defined fetal bovine serum, heat inactivated (HyClone Laboratories Inc., cat. SH30070.03HI), 50% L-WRN conditioned media (ATCC, cat. CRL-3276), 1.25 mM N-Acetyl-L-cysteine (Sigma-Aldrich, cat. A9165), 10 mM nicotinamide (Sigma-Aldrich, cat. N0636), 1X B-27 supplement (Thermo Fisher Scientific, cat. 17504044), 1X N-2 supplement (Thermo Fisher Scientific, cat. 17502048), 10 microM Y-27632 dihydrochloride (Tocris Bioscience, cat. 1254), and 50 ng/mL human EGF recombinant protein (Thermo Fisher Scientific, cat. PHG0311). The 485176-168-R4-J1-PDC line was cultured in Panc media, which includes all 6C/Colon 1B media components plus 100 ng/mL human FGF-10 (Thermo Fisher Scientific, cat. 100-26), 500 nM SB-431542 (Selleckchem, cat. S1067), and gastrin (Tocris, cat. 3006).
[…]

[1] = second compound 0.0316 µM, first compound 0.0316 µM
[2] = second compound 0.0316 µM, first compound 0.1 µM
[3] = second compound 0.0316 µM, first compound 0.316 µM
[4] = second compound 0.0316 µM, first compound 1 µM
[5] = second compound 0.0316 µM, first compound 3.16 µM
[6] = second compound 0.0316 µM, first compound 10 µM
[7] = second compound 0.1 µM, first compound 0.0316 µM
[8] = second compound 0.1 µM, first compound 0.1 µM
[9] = second compound 0.1 µM, first compound 0.316 µM
[10] = second compound 0.1 µM, first compound 1 µM
[11] = second compound 0.1 µM, first compound 3.16 µM
[12] = second compound 0.1 µM, first compound 10 µM
[13] = second compound 0.316 µM, first compound 0.0316 µM
[14] = second compound 0.316 µM, first compound 0.1 µM
[15] = second compound 0.316 µM, first compound 0.316 µM
[16] = second compound 0.316 µM, first compound 1 µM
[17] = second compound 0.316 µM, first compound 3.16 µM
[18] = second compound 0.316 µM, first compound 10 µM
[19] = second compound 1 µM, first compound 0.0316 µM
[20] = second compound 1 µM, first compound 0.1 µM
[21] = second compound 1 µM, first compound 0.316 µM
[22] = second compound 1 µM, first compound 1 µM
[23] = second compound 1 µM, first compound 3.16 µM
[24] = second compound 1 µM, first compound 10 µM
[25] = second compound 3.16 µM, first compound 0.0316 µM
[26] = second compound 3.16 µM, first compound 0.1 µM
[27] = second compound 3.16 µM, first compound 0.316 µM
[28] = second compound 3.16 µM, first compound 1 µM
[29] = second compound 3.16 µM, first compound 3.16 µM
[30] = second compound 3.16 µM, first compound 10 µM
[31] = second compound 10 µM, first compound 0.0316 µM
[32] = second compound 10 µM, first compound 0.1 µM
[33] = second compound 10 µM, first compound 0.316 µM
[34] = second compound 10 µM, first compound 1 µM
[35] = second compound 10 µM, first compound 3.16 µM
[36] = second compound 10 µM, first compound 10 µM

## CC1COCCN1c1cc(C2(S(C)(=N)=O)CC2)nc(-c2ccnc3[nH]ccc23)n1 (centres undefined) + Cc1cnc(CNC(=O)c2c(=O)c3ccc(N4CCCN(C)CC4)nc3n3c2sc2ccccc23)cn1
Second compound 0.0316 µM
  IC50: 249 nM
Second compound 0.1 µM
  IC50: 164 nM
Second compound 0.316 µM
  IC50: 97.9 nM
Second compound 1 µM
  IC50: < 31.6 nM
Second compound 3.16 µM
  IC50: < 31.6 nM
Second compound 10 µM
  IC50: < 31.6 nM
[1]
  viability, T/C: 87%
[2]
  viability, T/C: 71.1%
[3]
  viability, T/C: 44.9%
[4]
  viability, T/C: 25.8%
[5]
  viability, T/C: 31.5%
[6]
  viability, T/C: 17.7%
[7]
  viability, T/C: 59.8%
[8]
  viability, T/C: 57.9%
[9]
  viability, T/C: 38.6%
[10]
  viability, T/C: 23.7%
[11]
  viability, T/C: 36%
[12]
  viability, T/C: 17.9%
[13]
  viability, T/C: 57.3%
[14]
  viability, T/C: 48.9%
[15]
  viability, T/C: 41.4%
[16]
  viability, T/C: 27.2%
[17]
  viability, T/C: 29.2%
[18]
  viability, T/C: 22.5%
[19]
  viability, T/C: 45.9%
[20]
  viability, T/C: 46%
[21]
  viability, T/C: 42.9%
[22]
  viability, T/C: 31.8%
[23]
  viability, T/C: 37.1%
[24]
  viability, T/C: 21.3%
[25]
  viability, T/C: 36.9%
[26]
  viability, T/C: 37.7%
[27]
  viability, T/C: 36.2%
[28]
  viability, T/C: 31.1%
[29]
  viability, T/C: 33.7%
[30]
  viability, T/C: 20.4%
[31]
  viability, T/C: 0.72%
[32]
  viability, T/C: 0.21%
[33]
  viability, T/C: 0.33%
[34]
  viability, T/C: 0.28%
[35]
  viability, T/C: 0.77%
[36]
  viability, T/C: 1.29%

## CC1COCCN1c1cc(C2(O)CC3CCC(C2)O3)c2cnn(-c3ccn[nH]3)c2n1 (centres undefined) + Cc1cnc(CNC(=O)c2c(=O)c3ccc(N4CCCN(C)CC4)nc3n3c2sc2ccccc23)cn1
Second compound 0.0316 µM
  IC50: < 31.6 nM
Second compound 0.1 µM
  IC50: < 31.6 nM
Second compound 0.316 µM
  IC50: < 31.6 nM
Second compound 1 µM
  IC50: < 31.6 nM
Second compound 3.16 µM
  IC50: < 31.6 nM
Second compound 10 µM
  IC50: < 31.6 nM
[1]
  viability, T/C: 18.1%
[2]
  viability, T/C: 15.6%
[3]
  viability, T/C: 18.9%
[4]
  viability, T/C: 17.3%
[5]
  viability, T/C: 19.6%
[6]
  viability, T/C: 15.7%
[7]
  viability, T/C: 19.2%
[8]
  viability, T/C: 18.7%
[9]
  viability, T/C: 19.7%
[10]
  viability, T/C: 18.3%
[11]
  viability, T/C: 17.6%
[12]
  viability, T/C: 14.8%
[13]
  viability, T/C: 19.4%
[14]
  viability, T/C: 21.5%
[15]
  viability, T/C: 22%
[16]
  viability, T/C: 18.2%
[17]
  viability, T/C: 17.9%
[18]
  viability, T/C: 12.6%
[19]
  viability, T/C: 21.8%
[20]
  viability, T/C: 23.7%
[21]
  viability, T/C: 21.4%
[22]
  viability, T/C: 17.4%
[23]
  viability, T/C: 15.7%
[24]
  viability, T/C: 12.9%
[25]
  viability, T/C: 23%
[26]
  viability, T/C: 22.9%
[27]
  viability, T/C: 21.1%
[28]
  viability, T/C: 16%
[29]
  viability, T/C: 14.7%
[30]
  viability, T/C: 11%
[31]
  viability, T/C: 0.11%
[32]
  viability, T/C: 1.32%
[33]
  viability, T/C: 1.05%
[34]
  viability, T/C: 1.13%
[35]
  viability, T/C: 1.57%
[36]
  viability, T/C: 0.19%
